The text below walks through data of patent US11149037B2, “Pyrazole MAGL inhibitors” (H. Lundbeck A/S, priority 2017, dated 2021).

In experiment [1] the target is FAAH (Homo sapiens (Human), UniProt O00519). Nature of the experiment: In vitro competitive activity-based protein profiling, human proteomes (prefrontal cortex or PC3 cell membrane fractions). Format: biochemical. The conditions noted are these: human proteome; for inhibition at 1 µM: read-out: FAAH % inh. 1 μM (human). A digest of the protocol: (§1)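 Activity of MAGL and FAAH was quantified from fluorescent gel band intensities. Beforehand, inhibitors at several concentrations competed against subsequent probe labelling (FP-Rh, JW912 or HT-01) in species-matched proteomes, each step 30 min at 37° C.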

Experiment [2] concerns the target MAGL (Homo sapiens (Human), UniProt Q99685). Described as above. Format: biochemical. The conditions noted are these: human proteome; for inhibition at 1 µM: read-out: MAGL % inh. 1 μM (human). In a few lines: as §1
The target of experiment [3] is T1, FAAH (Mus musculus (Mouse), UniProt O08914). Nature of the experiment: In vitro competitive activity-based protein profiling, mouse proteomes (brain membrane fraction or cell lysates). Format: biochemical. The conditions noted are these: mouse proteome, read-out: FAAH % inh. 1 μM (mouse). In a few lines:
as §1

The target of experiment [4] is T2, MAGL (Mus musculus (Mouse), UniProt O35678). The experiment is described as above. Format: biochemical. The conditions noted are these: mouse proteome, read-out: MAGL % inh. 1 μM (mouse). In a few lines: as §1
Experiment [5] addresses T1, FAAH. Nature of the experiment: Mouse brain proteomes from inhibitor treated mice (oral gavage, sacrificed 4 h after administration). Format: in vivo. Particulars: 5 mg/kg oral gavage. Here is the method: (§2) Preparation of Mouse Brain Proteomes from Inhibitor Treated Mice.
(§3) Inhibitors were administered to wild-type C57B1/6J by oral gavage in a vehicle of polyethylene glycol. Each animal was sacrificed 4 h following administration and brain proteomes were prepared and analyzed according to previously established methods (See Niphakis, M. J., et al. (2011) ACS Chem. Neurosci. and Long, J. Z., et al. Nat. Chem. Biol. 5:37-44).

For experiment [6], the target named is T2, MAGL. The description is as above. Format: in vivo. The conditions noted are these: 5 mg/kg oral gavage. As for the experimental part: as §2, §3

T1 sequence (O08914 whole entry): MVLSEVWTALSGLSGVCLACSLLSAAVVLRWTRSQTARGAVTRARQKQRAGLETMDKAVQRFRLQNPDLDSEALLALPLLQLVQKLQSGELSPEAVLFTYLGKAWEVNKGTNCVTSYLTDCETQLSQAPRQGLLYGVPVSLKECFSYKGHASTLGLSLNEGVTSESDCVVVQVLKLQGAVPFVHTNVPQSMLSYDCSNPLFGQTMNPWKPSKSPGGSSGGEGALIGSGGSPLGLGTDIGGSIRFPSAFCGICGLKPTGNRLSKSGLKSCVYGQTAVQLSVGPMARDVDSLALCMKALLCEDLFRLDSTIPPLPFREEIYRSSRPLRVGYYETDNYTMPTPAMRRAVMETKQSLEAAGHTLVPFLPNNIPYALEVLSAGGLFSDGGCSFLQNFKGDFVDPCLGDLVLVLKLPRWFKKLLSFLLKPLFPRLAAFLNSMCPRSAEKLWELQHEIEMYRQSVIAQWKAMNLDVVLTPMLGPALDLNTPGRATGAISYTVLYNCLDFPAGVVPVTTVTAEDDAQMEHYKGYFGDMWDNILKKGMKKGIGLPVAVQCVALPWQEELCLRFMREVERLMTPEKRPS
Sequence of MAGL (Homo sapiens (Human), UniProt Q99685) (Q99685 whole entry): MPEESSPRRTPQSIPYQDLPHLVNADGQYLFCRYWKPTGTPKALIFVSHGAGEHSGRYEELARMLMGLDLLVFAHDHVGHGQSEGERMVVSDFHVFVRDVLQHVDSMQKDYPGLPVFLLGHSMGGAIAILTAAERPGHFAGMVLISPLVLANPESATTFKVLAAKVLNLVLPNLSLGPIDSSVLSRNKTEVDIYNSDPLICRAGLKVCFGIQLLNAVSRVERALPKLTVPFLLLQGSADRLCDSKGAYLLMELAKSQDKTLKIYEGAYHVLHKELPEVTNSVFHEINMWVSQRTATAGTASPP
Sequence of FAAH (Homo sapiens (Human), UniProt O00519) (O00519 whole entry): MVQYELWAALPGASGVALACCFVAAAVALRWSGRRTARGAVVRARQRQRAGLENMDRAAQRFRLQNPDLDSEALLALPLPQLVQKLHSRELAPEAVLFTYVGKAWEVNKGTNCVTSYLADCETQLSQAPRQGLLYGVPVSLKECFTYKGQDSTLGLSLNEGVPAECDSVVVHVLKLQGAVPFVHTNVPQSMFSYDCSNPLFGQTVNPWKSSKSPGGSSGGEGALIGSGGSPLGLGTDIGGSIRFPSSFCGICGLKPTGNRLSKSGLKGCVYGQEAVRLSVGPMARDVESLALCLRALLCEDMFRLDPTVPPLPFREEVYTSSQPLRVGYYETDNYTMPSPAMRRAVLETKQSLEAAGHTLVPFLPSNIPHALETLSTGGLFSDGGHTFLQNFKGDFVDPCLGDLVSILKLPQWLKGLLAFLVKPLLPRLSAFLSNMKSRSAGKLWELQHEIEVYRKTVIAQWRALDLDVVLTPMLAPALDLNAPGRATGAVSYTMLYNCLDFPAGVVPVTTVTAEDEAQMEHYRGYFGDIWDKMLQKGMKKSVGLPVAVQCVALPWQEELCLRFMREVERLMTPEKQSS
T2 sequence (O35678 whole entry): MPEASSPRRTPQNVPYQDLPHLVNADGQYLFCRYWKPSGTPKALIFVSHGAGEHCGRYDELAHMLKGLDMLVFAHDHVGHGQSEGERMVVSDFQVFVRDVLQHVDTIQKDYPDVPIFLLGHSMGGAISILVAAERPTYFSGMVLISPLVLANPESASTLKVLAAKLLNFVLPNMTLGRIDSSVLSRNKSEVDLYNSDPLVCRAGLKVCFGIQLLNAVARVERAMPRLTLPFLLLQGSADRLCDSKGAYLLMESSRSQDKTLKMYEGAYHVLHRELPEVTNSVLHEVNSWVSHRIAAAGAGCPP

As to `CS(=O)(=O)Nc1ccn(C(=O)N2CCC(Oc3ccc(C(F)(F)F)cc3-c3nnco3)CC2)n1` [Example 96, N-(1-(4-(2-(1,3,4-Oxadiazol-2-yl)-4-(trifluoromethyl)phenoxy)piperidine-1-carbonyl)-1H-pyrazol-3-yl)methanesulfonamide], the inhibition at 1 µM on FAAH [1] is 0 to 25%; at MAGL [2], over 75%; on FAAH [3], 0 to 25%; at MAGL [4], over 75%. Also, the “FAAH % inh. 5 mg/kg (mouse)” value on FAAH [5] is “D (% inhibition is greater than or equal to 0% and less than 25%)”. In addition, the “MAGL % inh. 5 mg/kg (mouse)” value at MAGL [6] is “D (% inhibition is greater than or equal to 0% and less than 25%)”.
On to `CS(=O)(=O)Nc1ccn(C(=O)N2CCC(Oc3ccc(C(F)(F)F)cc3-n3cccn3)CC2)n1` [Example 98, N-(1-(4-(2-(1H-Pyrazol-1-yl)-4-(trifluoromethyl)phenoxy)piperidine-1-carbonyl)-1H-pyrazol-3-yl)methanesulfonamide], for which the inhibition at 1 µM at FAAH [1] was 0 to 25%; on MAGL [2] it was over 75%; on FAAH [3] it was 0 to 25%; on MAGL [4], over 75%. In addition, the “FAAH % inh. 5 mg/kg (mouse)” value on FAAH [5] is “D (% inhibition is greater than or equal to 0% and less than 25%)”. Moreover, the “MAGL % inh. 5 mg/kg (mouse)” value on MAGL [6] is “D (% inhibition is greater than or equal to 0% and less than 25%)”.
With `CC(=O)N(Cc1ccc(C(F)(F)F)cc1N1CCCC1)C1(C)CCN(C(=O)n2ccc(NS(C)(=O)=O)n2)CC1` [Example 103, N-(4-Methyl-1-(3-(methylsulfonamido)-1H-pyrazole-1-carbonyl)piperidin-4-yl)-N-(2-(pyrrolidin-1-yl)-4-(trifluoromethyl)benzyl)acetamide], the inhibition at 1 µM at FAAH [1] was 0 to 25%; on MAGL [2], over 75%; at FAAH [3] it was 0 to 25%; on MAGL [4] it was over 75%. Further, on FAAH [5], the “FAAH % inh. 5 mg/kg (mouse)” value is “D (% inhibition is greater than or equal to 0% and less than 25%)”. Also, the “MAGL % inh. 5 mg/kg (mouse)” value at MAGL [6] is “D (% inhibition is greater than or equal to 0% and less than 25%)”.
In the case of `CN(Cc1ccc(C(F)(F)F)cc1N1CCN(C(=O)CO)CC1)C1(C)CCN(C(=O)n2ccc(NS(C)(=O)=O)n2)CC1` [Example 104, N-(1-(4-((2-(4-(2-Hydroxyacetyl)piperazin-1-yl)-4-(trifluoromethyl)benzyl)(methyl)amino)-4-methylpiperidine-1-carbonyl)-1H-pyrazol-3-yl)methanesulfonamide], the inhibition at 1 µM at FAAH [1] is 0 to 25%; on MAGL [2] it was over 75%; on FAAH [3], 0 to 25%; at MAGL [4], over 75%. Moreover, the “FAAH % inh. 5 mg/kg (mouse)” value on FAAH [5] is “D (% inhibition is greater than or equal to 0% and less than 25%)”. In addition, on MAGL [6], the “MAGL % inh. 5 mg/kg (mouse)” value is “D (% inhibition is greater than or equal to 0% and less than 25%)”.
For the compound `CC(=O)Nc1ccn(C(=O)N2CCN(Cc3ccc(Cl)cc3OCCCC(=O)O)CC2)n1` [Example 106, 4-(2-((4-(3-Acetamido-1H-pyrazole-1-carbonyl)piperazin-1-yl)methyl)-5-chlorophenoxy)butanoic acid], the inhibition at 1 µM was 0 to 25% on FAAH [1], over 75% at MAGL [2], 0 to 25% at FAAH [3] and over 75% on MAGL [4]. The “FAAH % inh. 5 mg/kg (mouse)” value at FAAH [5] is “D (% inhibition is greater than or equal to 0% and less than 25%)”. The “MAGL % inh. 5 mg/kg (mouse)” value on MAGL [6] is “D (% inhibition is greater than or equal to 0% and less than 25%)”.
With `CC(=O)Nc1ccn(C(=O)N2CCN(Cc3ccc(Cl)cc3NCC(=O)O)CC2)n1` [Example 108, (2-((4-(3-Acetamido-1H-pyrazole-1-carbonyl)piperazin-1-yl)methyl)-5-chlorophenyl)glycine], the inhibition at 1 µM on FAAH [1] is 0 to 25%; on MAGL [2], over 75%; on FAAH [3], 0 to 25%; at MAGL [4] it was over 75%. Further, the “FAAH % inh. 5 mg/kg (mouse)” value at FAAH [5] was “D (% inhibition is greater than or equal to 0% and less than 25%)”. For the same compound, the “MAGL % inh. 5 mg/kg (mouse)” value on MAGL [6] is “D (% inhibition is greater than or equal to 0% and less than 25%)”.
Turning to `CC(=O)Nc1ccn(C(=O)N2CC3CN(Cc4cccc(C(F)(F)F)c4)CC3C2)n1` (stereo not shown) [Example 112, N-(1-(5-(3-(Trifluoromethyl)benzyl)octahydropyrrolo[3,4-c]pyrrole-2-carbonyl)-1H-pyrazol-3-yl)acetamide], the inhibition at 1 µM on FAAH [1] was 25 to 50%; on MAGL [2], over 75%; on FAAH [3], over 75%; at MAGL [4], over 75%. For the same compound, at FAAH [5], the “FAAH % inh. 5 mg/kg (mouse)” value is reported as “A (% inhibition is greater than or equal to 75%)”. The “MAGL % inh. 5 mg/kg (mouse)” value at MAGL [6] was “A (% inhibition is greater than or equal to 75%)”.
In the case of `CS(=O)(=O)Nc1ccn(C(=O)N2CCN(Cc3ccc(Cl)c(N4CC[C@H](F)C4)c3)CC2)n1` [Example 117, (S)-N-(1-(4-(4-Chloro-3-(3-fluoropyrrolidin-1-yl)benzyl)piperazine-1-carbonyl)-1H-pyrazol-3-yl)methanesulfonamide], the inhibition at 1 µM was 0 to 25% on FAAH [1], over 75% on MAGL [2], 0 to 25% on FAAH [3] and over 75% at MAGL [4]. The “FAAH % inh. 5 mg/kg (mouse)” value at FAAH [5] is “D (% inhibition is greater than or equal to 0% and less than 25%)”. In addition, the “MAGL % inh. 5 mg/kg (mouse)” value on MAGL [6] was “B (% inhibition is greater than or equal to 50% and less than 75%)”.
With `CC(=O)Nc1ccn(C(=O)N2CC[C@H](Oc3ccc(C(N)=O)c(C(F)(F)F)c3)[C@H](F)C2)n1` [Example 118, 4-(((3R,4S)-1-(3-Acetamido-1H-pyrazole-1-carbonyl)-3-fluoropiperidin-4-yl)oxy)-2-(trifluoromethyl)benzamide], the inhibition at 1 µM on FAAH [1] was 0 to 25%; on MAGL [2] it was over 75%; at FAAH [3] it was 0 to 25%; on MAGL [4], over 75%. On FAAH [5], the “FAAH % inh. 5 mg/kg (mouse)” value is “D (% inhibition is greater than or equal to 0% and less than 25%)”. At MAGL [6], the “MAGL % inh. 5 mg/kg (mouse)” value is “D (% inhibition is greater than or equal to 0% and less than 25%)”.
Take `CS(=O)(=O)Nc1ccn(C(=O)N2CCN(Cc3ccc(C(F)(F)F)c(N4CC[C@H](F)C4)c3)CC2)n1` [Example 119, (S)-N-(1-(4-(3-(3-Fluoropyrrolidin-1-yl)-4-(trifluoromethyl)benzyl)piperazine-1-carbonyl)-1H-pyrazol-3-yl)methanesulfonamide]: the inhibition at 1 µM on FAAH [1] is 0 to 25%; at MAGL [2], over 75%; on FAAH [3], 0 to 25%; at MAGL [4] it was over 75%. Moreover, the “FAAH % inh. 5 mg/kg (mouse)” value on FAAH [5] is “D (% inhibition is greater than or equal to 0% and less than 25%)”. Besides, the “MAGL % inh. 5 mg/kg (mouse)” value on MAGL [6] was “A (% inhibition is greater than or equal to 75%)”.
As to `CC(=O)Nc1ccn(C(=O)N2CCC3(CCN(Cc4ccc(C(N)=O)c(C(F)(F)F)c4)C3)CC2)n1` [Example 125, 4-((8-(3-Acetamido-1H-pyrazole-1-carbonyl)-2,8-diazaspiro[4.5]decan-2-yl)methyl)-2-(trifluoromethyl)benzamide], the inhibition at 1 µM on FAAH [1] is 0 to 25%; on MAGL [2], over 75%; on FAAH [3] it was 0 to 25%; at MAGL [4], over 75%. Further, the “FAAH % inh. 5 mg/kg (mouse)” value on FAAH [5] is “D (% inhibition is greater than or equal to 0% and less than 25%)”. Moreover, at MAGL [6], the “MAGL % inh. 5 mg/kg (mouse)” value was “D (% inhibition is greater than or equal to 0% and less than 25%)”.
One may read the IC50 as the concentration at which inhibition is half-maximal. In the case of `CC(=O)Nc1ccn(C(=O)N2CCN(Cc3ccc(-c4ccccc4)cc3C)CC2)n1` [Example 131, N-(1-(4-((3-Methyl-[1,1′-biphenyl]-4-yl)methyl)piperazine-1-carbonyl)-1H-pyrazol-3-yl)acetamide], the inhibition at 1 µM at FAAH [1], at MAGL [2], on FAAH [3] and at MAGL [4] was over 75% each time. Besides, the IC50 at FAAH [1] is 1 to 10 µM; at MAGL [2], under 0.1 µM. Further, the “FAAH % inh. 5 mg/kg (mouse)” value at FAAH [5] is given as “A (% inhibition is greater than or equal to 75%)”. Besides, on MAGL [6], the “MAGL % inh. 5 mg/kg (mouse)” value is listed as “A (% inhibition is greater than or equal to 75%)”.
`CC(=O)Nc1ccn(C(=O)N2CCC(C)(N(C)Cc3cc(C(F)(F)F)cc(C4(C(=O)O)CCCC4)c3)CC2)n1` [Example 132, 1-(3-(((1-(3-Acetamido-1H-pyrazole-1-carbonyl)-4-methylpiperidin-4-yl)(methyl)amino)methyl)-5-(trifluoromethyl)phenyl)cyclopentane-1-carboxylic acid]: the inhibition at 1 µM on FAAH [1] was 0 to 25%; at MAGL [2], over 75%; at FAAH [3], 0 to 25%; at MAGL [4], over 75%. For the same compound, the concentration for half-maximal inhibition (IC50) on FAAH [1] was 1 to 10 µM; at MAGL [2], under 0.1 µM. Further, the “FAAH % inh. 5 mg/kg (mouse)” value on FAAH [5] was “D (% inhibition is greater than or equal to 0% and less than 25%)”. In addition, the “MAGL % inh. 5 mg/kg (mouse)” value at MAGL [6] is “D (% inhibition is greater than or equal to 0% and less than 25%)”.
